According to US20120029041A1, “2-ARYL IMIDAZOLINE DERIVATIVES” (MSD K.K., priority 2009, published 2012):

The molecules below were run against T1, human QRFP receptor (GPR103) (Homo sapiens, UniProt Q96P65) (assay: QRFP43 Binding Inhibition Test). Details: membrane specimen from GPR103 expressing CHO-K1 cells, [125I] QRFP43, 25° C., 1 hour; read-out: IC50 for the specific [125I] QRFP43 binding.
T1 construct: expressed in transfected cells; host or cells: NFAT β-Lactamase CHO-K1 host cells (Aurora); membrane specimen
T1 sequence (Q96P65 1-431): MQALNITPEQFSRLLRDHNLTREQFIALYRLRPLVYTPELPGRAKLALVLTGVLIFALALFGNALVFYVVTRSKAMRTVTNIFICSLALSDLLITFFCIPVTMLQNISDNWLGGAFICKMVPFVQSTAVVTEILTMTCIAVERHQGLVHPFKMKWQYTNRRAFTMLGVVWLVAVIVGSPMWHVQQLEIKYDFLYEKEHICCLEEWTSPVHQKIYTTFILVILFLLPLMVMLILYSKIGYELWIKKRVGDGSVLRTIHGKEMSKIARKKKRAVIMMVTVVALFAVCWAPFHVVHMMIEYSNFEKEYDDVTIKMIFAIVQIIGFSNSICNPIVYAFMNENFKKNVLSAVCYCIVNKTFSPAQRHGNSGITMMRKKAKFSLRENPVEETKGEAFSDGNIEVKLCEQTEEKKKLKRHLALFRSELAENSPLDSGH
From the text: The cDNA sequence [Accession No. NM_198179] that codes for human QRFP receptor (GPR103) was cloned into an expression vector pEF1V5-HisB (Invitrogen). The expression vector so prepared was transfected into NFAT [β-Lactamase CHO-K1 host cells (Aurora) to obtain QRFP receptor (GPR103) expressing cells, using the cationic lipid method [see Proceedings of the National Academy of Sciences of the United States of America, Vol. 84, p. 7413 (1987)].
The membrane specimen prepared from the QRFP receptor (GPR103) expressing cells was incubated at 25° C. for 1 hour with a test compound and 20,000 cpm [^125I] QRFP43 (PerkinElmer, Inc.) in an assay buffer (50 mM Tris-HCl, 1 mM EDTA, and 0.1% BSA, pH 7.4), followed by filtration using a glass filter GF/C. After washing with a 50 mM Tris-HCl (containing 2 mM EDTA, 10 mM MgCl2, and 0.04% Tween-20) buffer at pH 7.4, the radioactivity on the glass filter was determined using a gamma counter. Non-specific binding was measured in the presence of 1 μM peptide QRFP43, and 50% inhibition concentration (IC50 value) of the test compound for the specific [^125I] QRFP43 binding was determined [see Endocrinology, Vol. 131, p. 2090 (1992)].

Compound	IC50 [nM]
Cc1ccc(C2=NCCN2C(c2ccccc2)c2ccccc2)cc1 [Example 5, 1-(Diphenylmethyl)-2-(4-methylphenyl)-4,5-dihydro-1H-imidazole]	37
COc1ccc(C2=NCCN2C(c2ccccc2)c2ccccc2)cc1 [Example 6, 1-(Diphenylmethyl)-2-(4-methoxyphenyl)-4,5-dihydro-1H-imidazole]	11
Clc1ccc(C2=NCCN2C(c2ccccc2)c2ccccc2)cc1 [Example 2, 2-(4-Chlorophenyl)-1-(diphenylmethyl)-4,5-dihydro-1H-imidazole]	17
